# Results: publication PMC6437269, “OXA-48-Mediated Ceftazidime-Avibactam Resistance Is Associated with Evolutionary Trade-Offs” (mSphere, 2019)
# Tests used:
# OXA-48:P68A = OXA-48:P68A (Klebsiella pneumoniae, UniProt Q6XEC0, P68A); assay: IC50 with nitrocefin as reporter substrate, OXA-48:P68A; type: biochemical
# OXA-48 = target: T1, OXA-48 (Klebsiella pneumoniae, UniProt Q6XEC0); assay: biochemical; conditions: nitrocefin reporter substrate; enzyme and inhibitor incubated 5 min; error = 95% CI
# T1 construct: made in house
# T1 sequence (Q6XEC0 23-265 limits assumed): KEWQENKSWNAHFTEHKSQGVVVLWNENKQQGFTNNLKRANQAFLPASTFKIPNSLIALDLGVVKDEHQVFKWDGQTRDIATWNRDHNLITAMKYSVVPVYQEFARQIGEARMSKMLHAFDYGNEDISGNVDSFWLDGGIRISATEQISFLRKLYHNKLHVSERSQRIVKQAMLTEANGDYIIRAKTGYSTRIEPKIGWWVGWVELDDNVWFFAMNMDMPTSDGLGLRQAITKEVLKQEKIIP
# Chain of OXA-48:P68A (Q6XEC0 23-265 P68A): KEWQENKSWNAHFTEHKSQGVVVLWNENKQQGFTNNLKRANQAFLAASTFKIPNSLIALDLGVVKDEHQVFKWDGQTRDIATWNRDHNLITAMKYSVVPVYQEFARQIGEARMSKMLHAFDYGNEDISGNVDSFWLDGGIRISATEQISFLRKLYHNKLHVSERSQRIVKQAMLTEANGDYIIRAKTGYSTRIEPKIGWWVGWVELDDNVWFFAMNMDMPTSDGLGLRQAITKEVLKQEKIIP
smiles,measurement,setting,value
"C[C@]1(Cn2ccnn2)[C@H](C(=O)O)N2C(=O)C[C@H]2S1(=O)=O [Tazobactam, tazobactam]",reduction in the IC50,"OXA-48:P68A; P68A compared to native OXA-48, 5 min",> 20 fold
same,IC50,"OXA-48:P68A; nitrocefin reporter substrate, enzyme and inhibitor incubated 5 min, error = 95% CI",4 ± 1 µM
same,IC50,OXA-48,95 ± 9 µM
